Among the data in patent US10669272B2, “Substituted naphthyridinone compounds useful as T cell activators” (BRISTOL-MYERS SQUIBB COMPANY, priority 2018, dated 2020) are IC50 values, retold here.

Usually IC50 stands for the concentration needed to halve the response being measured.

Where two headings read alike, the source gives them in different places.

Assay [1] deals with T1, human DGKα (Homo sapiens, UniProt P23743).
T1 construct: TVMV protease cleavage site (C); Hexa-His (C); made in house; host or cells: Sf9 insect cells (baculovirus, Bac-to-Bac)
Nature of the assay: DGKα LIPGLO assay (extruded liposome substrate), in vitro DGK inhibition. The conditions noted are these: read-out: DGKa LIPGLO IC50. The class given is biochemical.

The target in assay [2] is T2, human DGKζ (Homo sapiens, UniProt Q13574).
T2 construct: TVMV protease cleavage site (C); Hexa-His (C); made in house; host or cells: Sf9 insect cells (baculovirus, Bac-to-Bac)
Nature of the assay: DGKζ LIPGLO assay (extruded liposome substrate), in vitro DGK inhibition. The assay is classed as biochemical. As to conditions: read-out: DGKz LIPGLO IC50.

T1 sequence (P23743 with tags, fused parts or gaps): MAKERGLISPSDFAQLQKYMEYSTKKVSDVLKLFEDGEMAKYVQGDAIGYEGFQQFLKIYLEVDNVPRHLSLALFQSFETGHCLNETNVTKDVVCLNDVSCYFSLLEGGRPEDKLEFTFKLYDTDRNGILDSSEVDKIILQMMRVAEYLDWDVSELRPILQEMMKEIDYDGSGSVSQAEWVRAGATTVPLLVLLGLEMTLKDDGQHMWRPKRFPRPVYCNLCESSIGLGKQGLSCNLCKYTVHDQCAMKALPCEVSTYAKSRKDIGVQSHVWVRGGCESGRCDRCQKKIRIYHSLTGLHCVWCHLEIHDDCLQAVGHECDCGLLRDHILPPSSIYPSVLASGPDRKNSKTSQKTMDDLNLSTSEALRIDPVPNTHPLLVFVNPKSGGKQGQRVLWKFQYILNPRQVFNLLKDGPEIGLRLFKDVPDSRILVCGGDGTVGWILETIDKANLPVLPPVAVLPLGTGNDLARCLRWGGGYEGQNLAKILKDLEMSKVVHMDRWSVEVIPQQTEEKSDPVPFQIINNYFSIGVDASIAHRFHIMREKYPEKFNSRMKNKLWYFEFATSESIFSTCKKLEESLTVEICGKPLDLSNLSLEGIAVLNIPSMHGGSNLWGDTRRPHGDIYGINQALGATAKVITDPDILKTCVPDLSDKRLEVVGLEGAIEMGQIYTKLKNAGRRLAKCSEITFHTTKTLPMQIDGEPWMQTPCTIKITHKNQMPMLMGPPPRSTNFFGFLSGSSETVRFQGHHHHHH
T2 sequence (Q13574 with tags, fused parts or gaps isoform Q13574-4): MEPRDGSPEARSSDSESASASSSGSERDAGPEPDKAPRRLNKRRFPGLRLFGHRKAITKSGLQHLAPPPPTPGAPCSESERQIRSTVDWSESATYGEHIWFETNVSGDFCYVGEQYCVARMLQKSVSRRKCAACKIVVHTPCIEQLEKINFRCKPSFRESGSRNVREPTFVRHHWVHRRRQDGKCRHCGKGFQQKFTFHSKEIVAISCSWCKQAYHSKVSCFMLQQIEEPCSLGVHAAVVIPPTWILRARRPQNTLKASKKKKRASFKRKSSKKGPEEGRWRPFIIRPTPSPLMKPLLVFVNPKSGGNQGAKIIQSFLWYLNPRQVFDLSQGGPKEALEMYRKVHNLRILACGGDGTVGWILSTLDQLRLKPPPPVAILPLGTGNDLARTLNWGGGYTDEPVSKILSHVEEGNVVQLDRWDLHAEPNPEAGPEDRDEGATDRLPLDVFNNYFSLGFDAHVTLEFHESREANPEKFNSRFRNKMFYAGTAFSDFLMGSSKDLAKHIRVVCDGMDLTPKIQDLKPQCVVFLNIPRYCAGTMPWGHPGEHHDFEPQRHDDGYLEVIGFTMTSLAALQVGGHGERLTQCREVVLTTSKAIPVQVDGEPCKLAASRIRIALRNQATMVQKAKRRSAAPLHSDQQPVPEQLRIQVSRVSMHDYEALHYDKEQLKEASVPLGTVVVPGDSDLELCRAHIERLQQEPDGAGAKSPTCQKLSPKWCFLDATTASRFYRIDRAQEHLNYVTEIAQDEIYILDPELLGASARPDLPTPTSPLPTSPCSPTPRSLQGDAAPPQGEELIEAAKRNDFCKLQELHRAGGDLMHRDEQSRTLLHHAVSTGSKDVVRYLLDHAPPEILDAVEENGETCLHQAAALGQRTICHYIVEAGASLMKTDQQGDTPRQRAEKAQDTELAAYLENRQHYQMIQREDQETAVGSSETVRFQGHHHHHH

For `Cn1c(=O)cc(N2CCN(Cc3ccc(F)cc3Cl)C(COC(F)F)C2)c2nc(C#N)ccc21` (single isomer, unassigned) [Example 1184, 8-(4-(2-chloro-4-fluorobenzyl)-3-((difluoromethoxy)methyl)piperazin-1-yl)-5-methyl-6-oxo-5,6-dihydro-1,5-naphthyridine-2-carbonitrile], the IC50 in assay [1] (liposome (LIPGLO) assay) stood at 110000 nM; in assay [2] (liposome (LIPGLO) assay) it was 11000 nM.
As to `CC(C)Oc1cc(F)ccc1CN1C[C@H](C)N(c2cc(=O)n(C)c3ccc(C#N)nc23)C[C@H]1C` [Example 598], the values for the IC50 in assay [1] (liposome (LIPGLO) assay) and in assay [2] (liposome (LIPGLO) assay) were 340 nM and 1800 nM, respectively.
On to `CC(c1ccc(Br)cc1)N1C[C@H](C)N(c2c(C#N)c(=O)n(C)c3ccc(C#N)nc23)C[C@H]1C` (single isomer, unassigned) [Example 790], for which the IC50 in assay [1] (DGKα liposome (LIPGLO) assay) is 610 nM; in assay [2] (DGKζ liposome (LIPGLO) assay), more than 250000 nM.
Consider `Cc1nc2c(C(C)N3C[C@H](C)N(c4cc(=O)n(C)c5ccc(C#N)nc45)C[C@H]3C)cccc2o1` (single isomer, unassigned) [Example 1260], for which the values for the IC50 in assay [1] (liposome (LIPGLO) assay) and in assay [2] (liposome (LIPGLO) assay) were 54000 nM and 86 nM, respectively.
Turning to `C[C@@H]1CN(c2cc(=O)n(C)c3ccc(C#N)nc23)[C@@H](C)CN1C(c1cccc(F)c1)c1ccccn1` (stereo partly drawn) [Example 404, 8-((2S,5R)-4-((3-fluorophenyl)(pyridin-2-yl)methyl)-2,5-dimethylpiperazin-1-yl)-5-methyl-6-oxo-5,6-dihydro-1,5-naphthyridine-2-carbonitrile], the IC50 in assay [1] (liposome (LIPGLO) assay) was 360 nM; in assay [2] (liposome (LIPGLO) assay), 4100 nM.
Turning to `CC[C@@H]1CN(c2cc(=O)n(C)c3ccc(C#N)nc23)[C@@H](C)CN1C(c1ccc(F)cc1)c1nc(C2CC2)no1` (some centres unmarked) [Example 1116], the IC50 is 31 nM in assay [1] (liposome (LIPGLO) assay) and 13 nM in assay [2] (liposome (LIPGLO) assay).
On to `C[C@@H]1CN(c2cc(=O)n(C)c3ccc(C#N)nc23)[C@@H](C)CN1C(c1ccc(F)cc1)c1cnccn1` (single isomer, unassigned) [Example 675], for which the IC50 in assay [1] (liposome (LIPGLO) assay) was found to be 4600 nM; in assay [2] (liposome (LIPGLO) assay), 23000 nM.
With `CC(=O)N1CCOc2c(CN3C[C@H](C)N(c4cc(=O)n(C)c5ccc(C#N)nc45)C[C@H]3C)cccc21` [Example 631], the IC50 in assay [1] (liposome (LIPGLO) assay) was determined as 1400 nM; in assay [2] (liposome (LIPGLO) assay), 4300 nM.
Consider `Cn1c(=O)cc(N2CCN(C(c3ccc(F)cc3)c3ccc(F)cc3)CC2CF)c2nc(C#N)ccc21` (racemic) [Example 149, 8-(4-(bis(4-fluorophenyl)methyl)-2-(fluoromethyl)piperazin-1-yl)-5-methyl-6-oxo-5,6-dihydro-1,5-naphthyridine-2-carbonitrile], for which the IC50 in assay [1] (liposome (LIPGLO) assay) amounted to 35000 nM; in assay [2] (liposome (LIPGLO) assay), 21000 nM.
For `CC[C@@H]1CN(c2cc(=O)n(C)c3ccc(C#N)nc23)[C@@H](CC)CN1Cc1ccc(F)cc1` [Example 1061], in that order: 11 nM and 100 nM.
Turning to `CC(c1ccc(F)cc1)N1C[C@H](C)N(c2c(C#N)c(=O)n(C)c3ccc(C#N)nc23)C[C@H]1C` (single isomer, unassigned) [Example 783], the results for the IC50 in assay [1] (DGKα liposome (LIPGLO) assay) and in assay [2] (DGKζ liposome (LIPGLO) assay) were 1200 nM and more than 250000 nM, respectively.
For the molecule `CC[C@@H]1CN(c2cc(=O)n(C)c3ccc(C#N)nc23)[C@@H](C)CN1C(C)c1c(F)cc(F)cc1F` (single isomer, unassigned) [Example 1089], the IC50 in assay [1] (liposome (LIPGLO) assay) is 510 nM; in assay [2] (liposome (LIPGLO) assay), 120 nM.
In the case of `C[C@@H]1CN(c2c(C#N)c(=O)n(C)c3ccc(C#N)nc23)CCN1C(c1ccc(Cl)cc1)c1ccc(C#N)cc1` (single isomer, unassigned) [Example 872], the IC50 in assay [1] (DGKα liposome (LIPGLO) assay) amounted to 1500 nM; in assay [2] (DGKζ liposome (LIPGLO) assay), 1400 nM.
In the case of `Cc1cc(C(C)N2C[C@H](C)N(c3cc(=O)n(C)c4ccc(C#N)nc34)C[C@H]2C)no1` (single isomer, unassigned) [Example 648], the IC50 amounted to 590 nM in assay [1] (liposome (LIPGLO) assay) and 3900 nM in assay [2] (liposome (LIPGLO) assay).
`CC(c1ccc(P(C)(C)=O)cc1)N1C[C@H](C)N(c2c(C#N)c(=O)n(C)c3ccc(C#N)nc23)C[C@H]1C` (single isomer, unassigned) [Example 1295]: the IC50 in assay [1] (liposome (LIPGLO) assay) stood at 130000 nM; in assay [2] (liposome (LIPGLO) assay) it was 47000 nM.
`C[C@@H]1CN(c2c(C#N)c(=O)n(C)c3ccc(C#N)nc23)CCN1Cc1cccnc1` [Example 998]: the IC50 in assay [1] (DGKα liposome (LIPGLO) assay) is 21000 nM; in assay [2] (DGKζ liposome (LIPGLO) assay) it was more than 250000 nM.
As to `Cc1ccc(CCN2C[C@H](C)N(c3cc(=O)n(C)c4ccc(C#N)nc34)C[C@H]2C)cc1` [Example 633], the IC50 in assay [1] (liposome (LIPGLO) assay) is 6700 nM; in assay [2] (liposome (LIPGLO) assay) it was 10000 nM.
Consider `Cc1nc2c(C(C)N3C[C@H](C)N(c4cc(=O)n(C)c5ccc(C#N)nc45)C[C@H]3C)cccc2o1` (single isomer, unassigned) [Example 1261], for which the IC50 amounted to 4200 nM in assay [1] (liposome (LIPGLO) assay) and 1100 nM in assay [2] (liposome (LIPGLO) assay).
Taken in the same sequence, the figures for `CCC(c1ccc(OC(F)(F)F)cc1F)N1C[C@H](CC)N(c2cc(=O)n(C)c3ccc(C#N)nc23)C[C@H]1CC` (single isomer, unassigned) [Example 1057] were 23 nM and 40 nM.
As to `C[C@@H]1CN(c2cc(=O)n(C)c3ccc(C#N)nc23)[C@@H](C)CN1C(COC(F)F)c1ccc(F)cc1` (single isomer, unassigned) [Example 1188], the IC50 in assay [1] (liposome (LIPGLO) assay) was determined as 29 nM; in assay [2] (liposome (LIPGLO) assay), 780 nM.
As to `CC[C@H]1CN(C(c2ccc(C)cc2)c2ccc(Cl)cc2)[C@H](C)CN1c1cc(=O)n(C)c2ccc(C#N)nc12` (single isomer, unassigned) [Example 1122], the IC50 in assay [1] (liposome (LIPGLO) assay) worked out at 710 nM; in assay [2] (liposome (LIPGLO) assay), 840 nM.
As for `C[C@@H]1CN(c2c(C#N)c(=O)n(C)c3ccc(C#N)nc23)CCN1C(c1ccc(Cl)cc1)c1ccc(C#N)cc1` (single isomer, unassigned) [Example 873], the IC50 stood at 2600 nM in assay [1] (DGKα liposome (LIPGLO) assay) and 7200 nM in assay [2] (DGKζ liposome (LIPGLO) assay).
As to `C[C@@H]1CN(c2cc(=O)n(C)c3ccc(C#N)nc23)[C@@H](C)CN1C(c1cccc(F)c1)c1ccccn1` (single isomer, unassigned) [Example 374], the IC50 in assay [1] (liposome (LIPGLO) assay) stood at 570 nM; in assay [2] (liposome (LIPGLO) assay), 3800 nM.
For `C[C@@H]1CN(c2cc(=O)n(C)c3ccc(C#N)nc23)[C@@H](C)CN1C(c1ccc(F)cc1)c1cnccn1` (single isomer, unassigned) [Example 674], in that order: 400 nM and 4300 nM.
For `C[C@@H]1CN(c2cc(=O)n(C)c3ccc(C#N)nc23)[C@@H](C)CN1Cc1ccc(OC(F)F)cc1` [Example 588], in that order: 91 nM and 7400 nM.
For `COCC(c1ccc(F)cc1)N1C[C@H](C)N(c2cc(=O)n(C)c3ccc(C#N)nc23)C[C@H]1C` (single isomer, unassigned) [Example 560], the values for the IC50 in assay [1] (liposome (LIPGLO) assay) and in assay [2] (liposome (LIPGLO) assay) were 580 nM and 2900 nM, respectively.
With `C[C@@H]1CN(c2cc(=O)n(C)c3ccc(C#N)nc23)[C@@H](C)CN1C(c1cccc(F)c1)c1ccc(C(F)(F)F)cn1` (stereo partly drawn) [Example 370, 8-((2S,5R)-4-((3-fluorophenyl)(5-(trifluoromethyl)pyridin-2-yl)methyl)-2,5-dimethylpiperazin-1-yl)-5-methyl-6-oxo-5,6-dihydro-1,5-naphthyridine-2-carbonitrile], the IC50 in assay [1] (liposome (LIPGLO) assay) is 1100 nM; in assay [2] (liposome (LIPGLO) assay), 760 nM.
Take `Cc1nc2ccc(C(C)N3C[C@H](C)N(c4cc(=O)n(C)c5ccc(C#N)nc45)C[C@H]3C)cc2s1` (single isomer, unassigned) [Example 1264]: the IC50 was determined as 10000 nM in assay [1] (liposome (LIPGLO) assay) and 3600 nM in assay [2] (liposome (LIPGLO) assay).
